In assay [1] the target is human D2 receptors expressed in stably transfected HEK 293 cells (Homo sapiens, UniProt P14416). In words: forskolin-dependent whole cell adenylyl cyclase inhibition assay, D2. The assay is classed as cell-based. The settings on record: HEK293, read-out: Intrinsic activity hD2 HEK.
The target of assay [2] is human D3 receptors expressed in stably transfected HEK 293 cells (Homo sapiens, UniProt P35462). In words: forskolin-dependent whole cell adenylyl cyclase inhibition assay, D3. The assay is classed as cell-based. As to conditions: HEK293, read-out: Intrinsic activity hD3 HEK.
human D3 receptors expressed in stably transfected HEK 293 cells, sequence (P35462 whole entry): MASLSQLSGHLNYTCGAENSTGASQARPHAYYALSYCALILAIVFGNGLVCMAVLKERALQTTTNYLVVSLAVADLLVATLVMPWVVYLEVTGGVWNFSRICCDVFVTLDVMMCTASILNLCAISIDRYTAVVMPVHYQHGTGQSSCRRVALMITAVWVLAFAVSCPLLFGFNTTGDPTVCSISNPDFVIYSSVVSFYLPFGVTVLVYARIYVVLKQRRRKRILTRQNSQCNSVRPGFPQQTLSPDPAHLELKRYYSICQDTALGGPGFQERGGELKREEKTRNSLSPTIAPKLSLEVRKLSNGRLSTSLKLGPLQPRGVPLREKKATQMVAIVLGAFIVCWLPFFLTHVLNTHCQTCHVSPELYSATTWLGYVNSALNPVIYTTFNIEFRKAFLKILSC

human D2 receptors expressed in stably transfected HEK 293 cells, sequence (P14416 whole entry): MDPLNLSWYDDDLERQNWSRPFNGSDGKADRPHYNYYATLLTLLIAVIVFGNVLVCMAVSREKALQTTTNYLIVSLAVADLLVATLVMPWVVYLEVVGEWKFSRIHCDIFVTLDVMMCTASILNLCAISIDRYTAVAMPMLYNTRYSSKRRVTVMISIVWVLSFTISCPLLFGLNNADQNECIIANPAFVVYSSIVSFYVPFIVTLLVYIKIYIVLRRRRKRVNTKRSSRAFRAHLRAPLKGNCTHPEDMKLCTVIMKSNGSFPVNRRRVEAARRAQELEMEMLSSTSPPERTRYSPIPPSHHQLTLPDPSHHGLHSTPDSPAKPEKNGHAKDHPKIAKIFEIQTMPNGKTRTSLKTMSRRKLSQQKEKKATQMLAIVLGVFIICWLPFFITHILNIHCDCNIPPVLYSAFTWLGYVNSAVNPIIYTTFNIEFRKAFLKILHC

`COc1ccccc1N1CCN(CCCCNC(=O)c2ccc(CCF)cc2)CC1` [WC 44]: the Emax in assay [1] was 35.3 ± 1%. Turning to `COc1ccccc1N1CCN(CCCCNC(=O)c2ccc(N(C)C)cc2)CC1` [WC 10, 4-(Dimethylamino)-N-[4-(4-(2-methoxyphenyl)piperazin-1-yl)butyl]benzamide], the Emax is 18.7 ± 2.2% in assay [2] and 33.5 ± 3.1% in assay [1].

The values above are taken from paper PMC4297516 (Bioorganic & medicinal chemistry letters, 2014).
